From ChEMBL document CHEMBL1139468, “Virtual screening of novel CB2 ligands using a comparative model of the human cannabinoid CB2 receptor” (J Med Chem, 2005)
pEC50: −log10 of the molar value. Calls of active or inactive are those of the source. The calls are words filed in the database; no cut-off is given here.

Legend:
[1] = target: Cannabinoid receptor 1 (Rattus norvegicus) (UniProt P20272); assay: Activity at CB1 receptor in rat cerebellar membrane by [35]GTPgamma binding assay; assay type: functional, cell membranes; details: Cerebellum
[2] = Inhibition of methionine gamma-lyase
[3] = target: Cannabinoid receptor 2 (Homo sapiens, UniProt P34972); assay: Agonist activity at human CB2 receptor transfected in CHO cells by [35]GTPgamma binding assay; assay type: cell-based
[4] = target: T1, Fatty-acid amide hydrolase 1 (Homo sapiens) (UniProt O00519); assay: Inhibition of FAAH
T1 sequence (whole entry): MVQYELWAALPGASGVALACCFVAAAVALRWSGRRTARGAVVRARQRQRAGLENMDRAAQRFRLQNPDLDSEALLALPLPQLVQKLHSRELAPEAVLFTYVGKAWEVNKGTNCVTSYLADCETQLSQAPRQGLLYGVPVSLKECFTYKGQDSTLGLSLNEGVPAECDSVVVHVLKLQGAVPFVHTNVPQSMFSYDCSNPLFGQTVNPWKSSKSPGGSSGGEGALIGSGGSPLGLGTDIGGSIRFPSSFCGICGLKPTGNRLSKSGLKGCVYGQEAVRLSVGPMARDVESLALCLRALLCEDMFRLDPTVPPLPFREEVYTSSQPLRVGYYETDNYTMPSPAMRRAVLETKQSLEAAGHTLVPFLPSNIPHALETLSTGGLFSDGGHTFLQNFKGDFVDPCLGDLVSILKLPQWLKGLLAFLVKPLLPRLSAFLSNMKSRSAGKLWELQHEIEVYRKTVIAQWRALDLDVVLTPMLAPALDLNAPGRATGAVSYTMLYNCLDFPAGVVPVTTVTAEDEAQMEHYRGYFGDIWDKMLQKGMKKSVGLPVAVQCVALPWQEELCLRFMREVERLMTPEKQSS

Cannabinoid receptor 2, sequence (P34972 whole entry): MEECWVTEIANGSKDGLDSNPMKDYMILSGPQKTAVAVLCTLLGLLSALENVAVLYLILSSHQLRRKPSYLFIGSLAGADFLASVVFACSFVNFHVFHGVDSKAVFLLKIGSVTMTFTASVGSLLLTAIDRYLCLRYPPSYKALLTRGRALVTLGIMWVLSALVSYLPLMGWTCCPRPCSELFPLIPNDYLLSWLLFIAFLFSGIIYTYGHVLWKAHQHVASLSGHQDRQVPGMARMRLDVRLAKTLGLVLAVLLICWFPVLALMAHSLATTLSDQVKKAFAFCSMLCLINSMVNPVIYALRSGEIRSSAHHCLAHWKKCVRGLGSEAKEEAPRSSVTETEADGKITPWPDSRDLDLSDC
Cannabinoid receptor 1 (Rattus norvegicus), sequence (P20272 whole entry): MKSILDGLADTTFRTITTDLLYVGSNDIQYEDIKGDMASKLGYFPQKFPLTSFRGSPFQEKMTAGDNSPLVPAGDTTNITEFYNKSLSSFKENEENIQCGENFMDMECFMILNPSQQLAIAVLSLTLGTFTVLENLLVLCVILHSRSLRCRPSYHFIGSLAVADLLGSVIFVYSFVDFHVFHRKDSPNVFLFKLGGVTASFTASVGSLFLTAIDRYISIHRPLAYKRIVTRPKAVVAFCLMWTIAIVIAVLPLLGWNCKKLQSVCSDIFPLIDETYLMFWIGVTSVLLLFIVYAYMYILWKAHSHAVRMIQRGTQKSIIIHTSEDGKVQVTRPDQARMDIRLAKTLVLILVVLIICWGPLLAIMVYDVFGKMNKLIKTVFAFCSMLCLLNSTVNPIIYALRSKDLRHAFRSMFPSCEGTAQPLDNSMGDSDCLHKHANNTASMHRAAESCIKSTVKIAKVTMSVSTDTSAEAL

Row | Structure (SMILES) | Activity [1] | Activity [2] | pEC50 [3] | Emax [3] | Activity [4]
1 | O=C(c1cccc(C(F)(F)F)c1)c1nccc2ccccc12 | inactive | inactive | 5.30 | 53% | inactive
2 | CCCCCCC(C)(C)c1cc(O)c2c(c1)OC(C)(C)[C@H]1CC=C(CO)C[C@H]21 | – | – | – | 103% | –
